{"source": "paper PMC3098219", "about": "“Protective Efficacy of Serially Up-Ranked Subdominant CD8^+ T Cell Epitopes against Virus Challenges” (PLoS Pathogens, 2011)", "key": {"[1]": {"system": "splenocytes of DNA-immunized mice", "experiment": "IFN-γ ELISPOT and ICS with modified HIVA immunogens", "assay_type": "cell-based, BALB/c mice", "settings": "for recognition of altered peptides by splenocytes (IFN-γ): Figure 2A and B, mice immunized with dHmP and dHmPG1, respectively", "source_text": "To further investigate this phenomenon, we serially inactivated CD8^+ T cell epitopes in the order of their immunodominance. To maintain the HIVA protein integrity, epitopes P and G1 were mutated rather than deleted by substituting the anchor amino acid residues required for a strong binding to the H-2K^d molecule (Figure 2A). The resulting double and triple mutants of the HIVA immunogen were called dHmP and dHmPG1, respectively. […] Groups of BALB/c mice were immunized 2x using the modified HIVA immunogens vectored by plasmid DNA and the immune responses were measured in IFN-γ ELISPOT, ICS and in vivo killing assays. […] Second, consistently in all three assays, immune responses directed against subdominant epitopes were serially recovered, however, not to the same extent. […] Because the response to the G2 epitope remained undetectable even in the dHmPG1-immunized mice, overlapping 15/11 peptides across the whole HIVA immunogen were used again to search for another yet unidentified epitope of a higher rank. […] (Figure 2D). […] Thus, step-wise deletion of immunodominant CD8^+ T cell epitopes restores responses to the subdominant epitopes in the hierarchy.\nFigure 2 Serial up-ranking of epitopes. A) Groups of 4 BALB/c mice were immunized 2x i.m. with 100 µg of DNA at a 2-wk interval. Two wk later, splenocytes were assessed in an ELISPOT assay for production of IFN-γ upon re-stimulation with peptides indicated above. Shown are schematic diagrams of HIVA and the three modified immunogens with representative examples of the ELISPOT well images. B) Mice were immunized as in A and 4 wk later, splenocytes were assessed in an ICS assay to measure CD8^+ T cells secreting IFN-γ upon re-stimulation with peptide indicated in the top left corner. Group means±SD are shown. C) Identical groups of mice were assessed for cytolytic activity in an in vivo lysis of syngeneic peptide-pulsed cells transferred into naïve or vaccinated animals. Representative examples of dot plots are shown (top) and the peptide-specific lyses are expressed as a group mean±SD (bottom). D) Groups of 3 BALB/c mice were immunized 3x with 100 µg of DNA indicated above the dot plot in 2-wk intervals and the designated NPP peptide-specific responses were assessed by IFN-γ ICS 2 wk later. The FACS plots are representative examples with IFN-γ producing cells as a percentage of CD8^+ splenocytes shown in the top right panels. All experiments were repeated at least once. TEXT PRINTED IN THE PICTURE: (D) HIVA: 0.05 | (D) HIVAdH: 0.09 | (D) dHmP: 0.08 | (D) dHmPG1: 0.57 DOUBTS OF THE COPYIST ABOUT THIS PICTURE: Panel D: the numbers in the top right quadrants of the CD8 / IFN-γ dot plots are printed without a measure or unit, so they are copied as bare numbers.\nThe ELISPOT assay was performed using the Mouse IFN-γ ELISpot kit (Mabtech) according to the manufacturer's instructions. Spots were visualised using sequential applications of a biotin-conjugated secondary anti-IFN-γ mAb (R4-6A2, Rat IgG1), an alkaline phosphatase and a chromogenic substrate (Bio-Rad) and counted using the AID ELISpot Reader System (Autoimmun Diagnostika)."}, "H-2K^d [2]": {"biological_target": "T1, H-2K^d (Mus musculus, UniProt P01902)", "T1 sequence (P01902 whole entry, looked up)": "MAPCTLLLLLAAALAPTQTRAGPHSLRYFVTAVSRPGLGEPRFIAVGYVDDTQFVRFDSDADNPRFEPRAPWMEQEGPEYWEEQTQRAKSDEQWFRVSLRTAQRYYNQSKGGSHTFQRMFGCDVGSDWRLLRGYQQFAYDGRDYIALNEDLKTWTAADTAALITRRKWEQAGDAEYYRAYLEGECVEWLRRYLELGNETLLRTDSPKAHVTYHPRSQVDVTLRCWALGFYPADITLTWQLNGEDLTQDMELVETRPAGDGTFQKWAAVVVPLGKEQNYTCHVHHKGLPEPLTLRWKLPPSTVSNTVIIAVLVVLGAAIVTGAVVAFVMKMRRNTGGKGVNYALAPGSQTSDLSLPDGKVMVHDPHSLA", "experiment": "T2 peptide binding assay, H-2K^d", "settings": "Figure S2A, 100 µM to 0.01 µM peptide", "experimental": "(§1) TAP2 ([…])-deficient T2 cell lines stably expressing D^d, K^d, and L^d molecules kindly provided by Dr. Ted Hansen (Washington university, U.S.A.) were used to assess the ability of MHCs to bind each peptide. In brief, 1×10^5 cells were incubated with 0/0.1/1.0/10/100 µM peptides in no-serum RPMI (R-0) for 14 h at 37°C, 5% CO2 in a flat-bottomed 96-well plate. 14 h later, cells were transferred to a round-bottomed 96-well plate and washed with PBS before staining the cells with anti-H-2K^d/H-2D^d-PE or anti-H-2L^d-PE (eBioscience) monoclonal antibodies. Cells were then analyzed on a FACS flow cytometer.\n(§2) Supplementary file ppat.1002041.s002.pdf: Figure S2 T2 assays for peptide binding affinity for MHC class I. TAPdeficient T2 cell lines stably transformed with H-2Dd, H-2Kd or H-2Ld complexes were kindly provided by Dr Hansen, Washington University. Peptide-loaded MHC complexes were detected by fluorochrome-conjugated mAb (DB Biosciences) and the cells were analyzed using flow cytometer. […]\n(§3) Supplementary Figure S2. […] Peptide-loaded MHC complexes were detected by fluorochrome-conjugated mAb (DB Biosciences) and the cells were analyzed using flow cytometer. […]"}, "[3]": {"system": "syngeneic peptide-pulsed cells", "experiment": "In vivo lysis assay, epitope hierarchy with boost vector and time", "design": "species or system BALB/c mice", "settings": "for epitope hierarchy at 100 d: Figure 5, DNA-DNA (pTH.HIVA) regimen, 100 d after last vaccination"}, "[4]": {"system": "CD8^+ splenocytes of immunized mice", "assay_type": "cell-based, BALB/c mice", "settings": "HIVAdH vs HIVA immunization; ex vivo ICS, Figure 1D"}, "[5]": {"system": "syngeneic peptide-pulsed cells", "experiment": "in vivo killing assay (lysis of syngeneic peptide-pulsed cells)", "design": "species or system BALB/c mice", "settings": "HIVAdH vaccinated relative to HIVA vaccination; Figure 1F"}, "[6]": {"system": "CD8^+ splenocytes of DNA-immunized mice", "experiment": "ICS T cell avidity (peptide titration, CD107a/b and IFN-γ)", "assay_type": "cell-based, BALB/c mice", "settings": "for peak IFN-γ^+CD107a/b^+CD8^+ cell frequencies at 10 µM peptide: Figure 3B, individual determinants when dominant: H in group HIVA, P in HIVAdH, G1 in dHmP, NPP in dHmPG1, 3x 100 µg DNA, 5 h", "experimental": "(§4) T2 cell lines were incubated with decreasing peptide concentrations ranging from 100 µM to 0.1 µM indicated above the H peptide histogram and the cell surface peptide-loaded MHC complexes were detected by fluorochrome-conjugated mAb (DB Biosciences) and quantified using FACS flow cytometer. B) and C) Groups of 3 BALB/c mice were given 3x immunizations using 100 µg of DNA expressing the index or mutated forms of HIVA at 3 wk intervals and their T cell responses were analyzed 4 wk later. B) Splenocytes were assessed in an ICS assay using peptides indicated above the graphs at concentrations ranging from 10 to 10^−8 µM for 5 h. Cells were gated on IFN-γ-producing CD8^+ T cell populations positive (top) or negative (bottom) for CD107a/b. Note the different y-axis scales on the top and bottom graphs. C) The response kinetics of CD8^+ T cells re-stimulated with 0.1 µM peptides was assessed in an ICS assay in 1-h intervals for a period of 4 h. Data shown are as mean±SD of [CD8^+CD107a/b^+IFN-γ^+ cells at each time point (%)] ÷ [CD8^+CD107a/b^+IFN-γ^+ at 4 h (%)]. One out of two independent experiments is shown.\nWe also measured avidities of T cell responses recovered through the sequential HIVA epitope up-ranking. First, responsiveness of immune splenocytes following 3 plasmid DNA deliveries was measured in an ICS assay upon re-stimulation with peptide concentrations ranging from 10^−8 to 10 µM for 5 h (Figure 3A)."}, "[7]": {"system": "H-2D^d, H-2K^d or H-2L^d complexes", "experiment": "T2 peptide binding assay, respective MHC class I complexes", "settings": "Figure 3A; TAP-deficient T2 cells, 100 µM to 0.1 µM peptide, 14 h at 37°C, FACS", "experimental": "as §4, with “Figure 3 Contributing mechanisms of immunodominance. […] T2” for “T2”\nas §1"}, "CD8^+ T cells": {"system": "CD8^+ T cells", "experiment": "Immunodominance hierarchy of T cell responses to HIVA-derived epitopes", "assay_type": "cell-based, BALB/c mice", "settings": "10 d after immunization"}, "H-2D^d": {"biological_target": "H-2D^d (Mus musculus, UniProt P01900)", "sequence (P01900 whole entry, looked up)": "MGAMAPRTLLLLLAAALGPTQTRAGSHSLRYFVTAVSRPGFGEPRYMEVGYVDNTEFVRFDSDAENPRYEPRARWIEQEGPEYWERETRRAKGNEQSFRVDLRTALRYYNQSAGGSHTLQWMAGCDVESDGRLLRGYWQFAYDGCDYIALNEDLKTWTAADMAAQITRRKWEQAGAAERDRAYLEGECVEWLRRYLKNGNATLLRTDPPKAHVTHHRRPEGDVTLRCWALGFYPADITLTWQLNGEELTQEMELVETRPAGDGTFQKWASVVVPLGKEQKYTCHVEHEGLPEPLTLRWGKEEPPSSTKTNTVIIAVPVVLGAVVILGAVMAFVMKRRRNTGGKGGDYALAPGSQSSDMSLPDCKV", "experiment": "T2 peptide binding assay, H-2D^d", "settings": "Figure S2B, 100 µM to 0.01 µM peptide", "experimental": "as §1, §2, §3"}, "H-2L^d": {"biological_target": "H-2L^d (Mus musculus, UniProt P01897)", "sequence (P01897 whole entry, looked up)": "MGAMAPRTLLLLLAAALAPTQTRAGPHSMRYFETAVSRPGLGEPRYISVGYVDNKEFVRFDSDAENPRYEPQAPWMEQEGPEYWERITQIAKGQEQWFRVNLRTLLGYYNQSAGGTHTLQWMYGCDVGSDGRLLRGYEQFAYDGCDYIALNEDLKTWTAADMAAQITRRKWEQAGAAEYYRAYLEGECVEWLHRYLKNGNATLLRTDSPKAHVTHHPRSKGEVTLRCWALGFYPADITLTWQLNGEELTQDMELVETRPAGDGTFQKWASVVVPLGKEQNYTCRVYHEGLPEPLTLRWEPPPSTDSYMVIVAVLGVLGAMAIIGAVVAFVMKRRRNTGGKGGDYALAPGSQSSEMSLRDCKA", "experiment": "T2 peptide binding assay, H-2L^d", "settings": "Figure S2B, 100 µM to 0.01 µM peptide", "experimental": "as §1, §2, §3"}, "[8]": {"system": "H-2D^d and H-2L^d molecules", "settings": "ref [31], [33]; cited from earlier work", "source_text": "(§5) Our research interests lie in development of the T cell component of HIV-1 vaccines stimulating protective CD8^+ T cell responses. The first-generation T cell immunogen, designated HIVA (Figure 1A), has served as an extremely useful tool for iterative improving of CD8^+ T cell induction by experimental vaccines in mice, non-human primates and humans [reviewed in [30]]. To increase the power of T cell analysis and study the role of subdominant determinants, H-2^d class I-restricted epitopes contained in the HIVA immunogen were mapped in detail. Thus, the most immunodominant epitope of ..."}, "H-2K^d [9]": {"biological_target": "T1, H-2K^d", "settings": "ref [34]; cited from earlier work", "source_text": "as §5"}}, "data": [{"sequence": "AMEFLKDTA [altered G1 peptide]", "values": [{"measurement": "recognition of altered peptides by splenocytes (IFN-γ)", "setting": "[1]", "value": "unable to recognize"}, {"measurement": "binding to H-2K^d", "setting": "H-2K^d [2]", "value": "unable to bind"}]}, {"sequence": "IFGSSMTKA [altered P peptide]", "values": [{"measurement": "recognition of altered peptides by splenocytes (IFN-γ)", "setting": "[1]", "value": "unable to recognize"}, {"measurement": "binding to H-2K^d", "setting": "H-2K^d [2]", "value": "unable to bind"}]}, {"sequence": "IFQSSMTKI [P]", "values": [{"measurement": "epitope hierarchy at 100 d", "setting": "[3]", "value": "replaced by T cells specific for peptide P"}, {"measurement": "frequencies of IFN-γ-producing CD8^+ cells", "setting": "[4]", "value": "noticeably, though not significantly increased"}, {"measurement": "in vivo lysis of peptide-pulsed targets", "setting": "[5]", "value": "increased in vivo lysis"}, {"measurement": "peak IFN-γ^+CD107a/b^+CD8^+ cell frequencies at 10 µM peptide", "setting": "[6]", "value": "3.3 % of total CD8^+ splenocytes"}, {"measurement": "peptide binding affinities for respective MHC class I", "setting": "[7]", "value": "directly correlated with the immunodominance hierarchy"}, {"measurement": "hierarchy of T cell responses against HIVA-derived epitopes", "setting": "CD8^+ T cells", "value": "H>P>>G1>NPP>>G2"}]}, {"sequence": "NPPIPVGDI", "values": [{"measurement": "restriction / binding to H-2D^d", "setting": "H-2D^d", "value": "restricted by H-2D^d and H-2L^d"}, {"measurement": "restriction / binding to H-2L^d", "setting": "H-2L^d", "value": "restricted by H-2D^d and H-2L^d"}, {"measurement": "peak IFN-γ^+CD107a/b^+CD8^+ cell frequencies at 10 µM peptide", "setting": "[6]", "value": "0.8 % of total CD8^+ splenocytes"}, {"measurement": "hierarchy of T cell responses against HIVA-derived epitopes", "setting": "CD8^+ T cells", "value": "H>P>>G1>NPP>>G2"}]}, {"sequence": "NPPIPVGDIYKRWIILGLNK", "values": [{"measurement": "T cell response to peptide in epitope search", "setting": "[1]; dHmPG1-immunized mice, overlapping 15/11 peptides across HIVA", "value": "a response was detected"}]}, {"sequence": "RGPGRAFVTI [H]", "values": [{"measurement": "epitope hierarchy at 100 d", "setting": "[3]", "value": "no longer dominated the anti-HIVA response"}, {"measurement": "epitope hierarchy at 28 d", "setting": "[3]; double or triple DNA prime-boost regimen, 28 d post vaccination", "value": "the strongest at 28 d post vaccination"}, {"measurement": "MHC class I restriction (H-2D^d and H-2L^d)", "setting": "[8]", "value": "restricted by H-2D^d and H-2L^d molecules"}, {"measurement": "IFN-γ response in non-degranulating IFN-γ^+CD107a/b^−CD8^+ cells", "setting": "[6]; Figure 3B bottom, following HIVA vaccination, low, but significant", "value": "0.65 % of total CD8^+ cells"}, {"measurement": "peak IFN-γ^+CD107a/b^+CD8^+ cell frequencies at 10 µM peptide", "setting": "[6]", "value": "3.2 % of total CD8^+ splenocytes"}, {"measurement": "peptide binding affinities for respective MHC class I", "setting": "[7]", "value": "directly correlated with the immunodominance hierarchy"}, {"measurement": "hierarchy of T cell responses against HIVA-derived epitopes", "setting": "CD8^+ T cells", "value": "H>P>>G1>NPP>>G2"}]}, {"sequence": "TTSTLQEQI [G2, Gag residues 239–247]", "values": [{"measurement": "frequencies of IFN-γ-producing CD8^+ cells", "setting": "[4]", "value": "undetectable"}, {"measurement": "MHC class I restriction (H-2K^d)", "setting": "H-2K^d [9]", "value": "H-2K^d-restricted"}, {"measurement": "restoration of G2-specific response", "setting": "[1]; immunization with dHmPG1 vaccine", "value": "failed to restore the G2-specific response"}, {"measurement": "peptide binding affinities for respective MHC class I", "setting": "[7]", "value": "directly correlated with the immunodominance hierarchy"}, {"measurement": "hierarchy of T cell responses against HIVA-derived epitopes", "setting": "CD8^+ T cells", "value": "H>P>>G1>NPP>>G2"}]}]}
